Source: patent EP0413433A1, “Isoindolyl-imidazole-derivatives and pharmaceutical compositions” (Beecham Group p.l.c., priority 1989, dated 1991)

How the values were obtained:
[1] = system: post-junctional α₂-adrenoceptors; test: Post-junctional α₂-adrenoceptor antagonism: antagonism of noradrenaline contractions in ring segments of rabbit lateral saphenous vein; conditions: rabbit lateral saphenous vein rings, 37°C, Krebs medium
Description: To determine post-junctional α₂-adrenoceptor activity, ring segments of rabbit lateral saphenous vein were mounted in organ baths at 37 °C containing Krebs medium. Contractions of this tissue in response to noradrenaline are mediated via post-junctional α₂-adrenoceptors (Alabaster et al, 1985) and therefore the ability of α₂-adrenoceptor antagonists to pharmacologically antagonise such contractions gives a quantitive measure of the activity of compounds for this receptor subtype.

[2] = system: post-junctional α₁-adrenoceptors; test: Post-junctional α₁-adrenoceptor agonism: contraction of rings of rabbit aorta in comparison with noradrenaline; conditions: agonist contraction in comparison with noradrenaline
Description: Post-junctional α₁ activity was determined using a method similar to that for post-junctional α₂ activity, but using rings of rabbit aorta. Contractions of this tissue are mediated by post-junctional α₁-adrenoceptors (Docherty et al. 1981), and so the pD2 and intrinsic activity (IA) of α₁-adrenoceptor agonists were calculated from their ability to contract the rings of aorta in comparison with noradrenaline.

α2-Adrenoceptor = molecular target: T1, α2-Adrenoceptor (Homo sapiens, UniProt P08913); test: α2-Adrenoceptor binding: [³H] Rauwolscine displacement on human platelet membranes; conditions: [³H] Rauwolscine (0.5-1.0 nM), 30 minutes at 30°C, Cheng Prussoff equation, read-out: Binding Affinity. Ki
T1 construct: Rauwolscine; from tissue; host or cells: human platelet membranes
T1 sequence (P08913 1-465): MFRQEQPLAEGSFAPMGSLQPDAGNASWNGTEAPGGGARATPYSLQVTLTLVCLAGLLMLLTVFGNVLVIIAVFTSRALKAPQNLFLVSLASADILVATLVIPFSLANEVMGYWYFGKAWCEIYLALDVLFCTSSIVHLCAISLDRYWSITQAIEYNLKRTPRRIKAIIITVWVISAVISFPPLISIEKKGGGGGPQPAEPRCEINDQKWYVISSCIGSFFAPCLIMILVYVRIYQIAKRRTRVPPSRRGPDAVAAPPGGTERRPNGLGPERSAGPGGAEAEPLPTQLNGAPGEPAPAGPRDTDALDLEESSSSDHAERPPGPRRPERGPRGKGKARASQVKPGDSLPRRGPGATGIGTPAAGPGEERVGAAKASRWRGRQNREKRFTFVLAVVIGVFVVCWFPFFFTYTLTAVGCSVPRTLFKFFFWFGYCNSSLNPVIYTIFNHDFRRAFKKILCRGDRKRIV
Description: Human platelet membranes were incubated with [³H] Rauwolscine (0.5-1.0 nM) for 30 minutes at 30 °C with varying concentrates of the drug (0.1-10,000 nM). The binding assay was stopped by filtering and rinsing on GF/B glass fibre filters.
Binding Affinity (Ki) was calculated using the Cheng Prussoff equation.

In the case of `C[C@@H]1c2ccccc2CN1CC1=NCCN1` [Example 1, (R)-2-[(4,5-Dihydro-1H-imidazol-2-yl)methyl]-2,3-dihydro-1-methyl-1H-isoindole], the “Post-synaptic PA₂” value [1] is reported as 7.3, the “Post-synaptic pD₂” value [2] is reported as under 4 and the Ki (α2-Adrenoceptor) is reported as 0.3 nM.
